According to patent publication US8481572B2, “Pharmaceutical compositions and methods for the treatment of cancer” (Urifer Ltd., priority 2007, dated 2013):
Read-outs that look alike come from different tables or passages of the source.

Tests used:
Format in all cases: cell-based
[1] = test system: PC3 prostate cancer cell line; experiment: XTT test, number of viable cells, PC3; conditions: concentrations tested up to 80 μM
Experimental: (§1) The effect of the four compounds 497, 631, 115 and 540 on the growth profile of cancer cells which express Fer was tested. The cells that were tested were: the colon cancer cell lines HT29 and HCT 116, the breast cancer cell lines MDA-MB-231 and MCF-7, and the prostate cancer cell lines PC3 and DU145. The effect of each of the four compounds on FS11 cells, a non malignant fibroblastic cell line, was also studied.
(§2) The cells were seeded in 96 wells microplates and were left to grow untreated overnight. Each of the […] compounds was dissolved in DMSO and was then added to each well in a dose dependent manner from 0.4 to 80 μM. The concentration of DMSO in each well was 0.4% v/v. Untreated cells and cells subjected to 0.4% DMSO alone, served as controls. The number of viable cells in each well was determined 48, 72, 96 hours after compounds addition, using the XTT test (Berridge, M. V. et al, 2005).

[2] = test system: HT29 human colorectal carcinoma cells; experiment: XTT test, number of viable cells, HT29
Experimental: as §1, §2
(§3) The effect of compound E626-0342 on the growth profile of cancer cells which express Fer was tested. The compound was added to the growth media of FS11-normal primary human fibroblasts and to two colon cancer cell lines, HCT116 and HT29, which express Fer.
(§4) Various cell lines were seeded in 96 wells microplates and were left to grow untreated overnight. Compound E626-0342, dissolved in DMSO at a stock concentration of 10 mM was then added to each well in a dose dependent manner, resulting in final concentrations extending from 0.5 to 15 μM. The final concentration of DMSO in each well was 1% v/v. Untreated cells and cells subjected to 1% DMSO alone, served as controls. The number of viable cells in each well was determined 96 hours after addition of the compound, using the XTT test (Berridge, M. V. et al, 2005).

[3] = target: T1, murine Fer (Mus musculus, UniProt P70451); experiment: Fer tyrosine phosphorylation in yeast cells expressing ectopic Fer (western blot); conditions: 40 μM for 48 h
T1 construct: expressed in transfected cells; host or cells: S. cerevisiae yeast cells harboring plasmid pAES-Fer
T1 sequence (P70451 whole entry): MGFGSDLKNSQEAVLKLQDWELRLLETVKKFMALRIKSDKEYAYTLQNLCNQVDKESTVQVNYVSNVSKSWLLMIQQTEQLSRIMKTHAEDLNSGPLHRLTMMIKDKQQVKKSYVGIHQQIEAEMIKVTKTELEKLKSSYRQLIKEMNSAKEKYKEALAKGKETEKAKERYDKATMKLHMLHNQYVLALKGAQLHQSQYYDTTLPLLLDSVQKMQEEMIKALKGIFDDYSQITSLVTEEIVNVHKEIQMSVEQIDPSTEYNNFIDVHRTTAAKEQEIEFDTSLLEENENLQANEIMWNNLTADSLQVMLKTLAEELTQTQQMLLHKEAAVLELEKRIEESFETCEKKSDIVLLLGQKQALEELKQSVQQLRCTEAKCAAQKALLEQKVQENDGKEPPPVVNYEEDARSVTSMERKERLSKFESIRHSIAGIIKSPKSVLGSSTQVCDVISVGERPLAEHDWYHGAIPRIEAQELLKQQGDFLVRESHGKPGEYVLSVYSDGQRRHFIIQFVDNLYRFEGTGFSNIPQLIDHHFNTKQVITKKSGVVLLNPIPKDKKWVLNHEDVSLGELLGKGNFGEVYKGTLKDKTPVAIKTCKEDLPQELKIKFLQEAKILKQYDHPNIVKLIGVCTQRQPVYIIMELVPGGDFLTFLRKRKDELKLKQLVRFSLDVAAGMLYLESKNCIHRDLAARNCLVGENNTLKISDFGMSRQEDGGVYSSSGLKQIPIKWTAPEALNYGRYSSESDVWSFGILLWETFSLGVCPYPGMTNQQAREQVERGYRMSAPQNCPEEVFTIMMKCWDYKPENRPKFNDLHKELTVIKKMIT
Experimental: To examine whether the above listed compounds affect the enzymatic activity of Fer, the protein tyrosine phosphorylation profile in yeast cells which ectopically express the murine Fer, was analyzed using the yeast system disclosed in WO2007/107991. Since the S. cerevisae yeast cells lack almost completely detectable, endogenous, tyrosine phosphorylation activity, the detected tyrosine phosphorylation signals result essentially from the kinase activity of the ectopic Fer. Furthermore, considering the negligible tyrosine-phosphorylation background in the cells, it is possible to specifically track the tyrosine phosphorylation level of Fer in the treated yeast cells.
Yeast cells expressing an ectopic Fer were treated with 40 μM of one of the compounds 497, 631, 115 and 540 for 48 h. […] The expression levels of Fer and the tyrosine phosphorylation profiles of the proteins before and after treatment with the compounds were determined using a western-blot analysis. […]
To examine whether E626-0342 affects the enzymatic activity of Fer, the protein tyrosine phosphorylation profile in yeast cells which ectopically express the murine Fer, was analyzed. Since the S. cerevisae yeast cells lack almost completely detectable, endogenous, tyrosine phosphorylation activity, the detected tyrosine phosphorylation signals result essentially from the kinase activity of the ectopic Fer. […]

[4] = test system: FS11 human fibroblastic cells; experiment: XTT test, number of viable cells, FS11 non-malignant fibroblasts; conditions: for EC50: Homo sapiens, Fibroblast, XTT test, concentrations tested up to 80 μM
Experimental: as §1, §2, §3, §4

[5] = test system: MDA-MB-231 breast cancer cell line; experiment: XTT test, number of viable cells, MDA-MB-231; conditions: Homo sapiens, concentrations tested up to 80 μM
Experimental: as §1, §2

[6] = test system: HCT116 human colorectal carcinoma cells; experiment: XTT test, number of viable cells, HCT116
Experimental: as §1, §2, §3, §4

[7] = test system: MCF-7 breast cancer cell line; experiment: XTT test, number of viable cells, MCF-7; conditions: Homo sapiens, MCF7, concentrations tested up to 80 μM
Experimental: as §1, §2

[8] = test system: DU145 prostate cancer cell line; experiment: XTT test, number of viable cells, DU145; conditions: Homo sapiens, DU-145, concentrations tested up to 80 μM
Experimental: as §1, §2

[9] = HT-29, XTT test, concentrations tested up to 80 μM, read-out: EC50 on HT29
[10] = HCT-116, XTT test, concentrations tested up to 80 μM, read-out: EC50 on HCT116

EC50 [1] [µM] | EC50 ([2]; HT-29, 0.4% DMSO, 0.4 to 80 μM, read-out: EC50, decrease in cell viability, HT29) [µM] | EC50 [2, 9] [µM] | tyrosine phosphorylation level of the Fer protein band (Fer autophosphorylation) [3] | EC50 [5] [µM] | EC50 ([6]; HCT-116, 0.4% DMSO, 0.4 to 80 μM, read-out: EC50, decrease in cell viability, HCT116) [µM] | EC50 [6, 10] [µM] | EC50 [7] [µM] | IC50 ([2]; HT-29, after 96 h, read-out: IC50, reduction in number of viable cells, HT29) [nM] | IC50 ([6]; HCT-116, after 96 h, read-out: IC50, reduction in number of viable cells, HCT116) [nM] | EC50 [8] [µM] | Structure (SMILES) | effect on FS11 cells ([4]; up to a concentration of 80 μM) | EC50 [4] [µM]
32 | 40 | 30 | significant reduction | 32 | 24 | 24 |  |  |  |  | CC(C)c1nn2cc(-c3ccc(F)cc3)nc2s1 [Compound 631] | did not affect | 
 |  | 32 |  | 40 |  | 32 | 8 |  |  |  | Cc1ccn2cc(-c3ccc(F)cc3)cc2c1 [Compound 115] |  | > 80
4 |  | 2 | significant reduction | 2 |  | 2 | 8 | 2000 | 2000 | 8 | Nc1cc(-c2ccc(Cl)cc2)nn1S(=O)(=O)c1c(F)c(F)c(F)c(F)c1F [Compound 497] |  | 4
